Experimental data from US20090042898A1, “USE OF COMPOUNDS ACTIVE ON THE SIGMA RECEPTOR FOR THE TREATMENT OF MECANICAL ALLODYNIA” (priority 2004, published 2009).

Tests used:
[1] = tested on: mechanical allodynia in mice exposed to the sciatic nerve injury; test: Von Frey model in mice exposed to sciatic nerve injury (partial sciatic nerve ligation); format: in vivo; details: FIG. 5, 60 mg/kg subcutaneous, Day 11 after surgery, ipsilateral
Procedure: The partial sciatic nerve ligation model was used to induce neuropathic pain (Malmberg and Basbaum, Pain 76: 215-222, 1998). This model consists of injury to the sciatic nerve at mid-to high level. Briefly, mice were anaesthetized with halothane (induction: 3%; surgery: 1%) and the common sciatic nerve was exposed at the level of the mid-thigh of the right paw. In control animals (sham-operated mice), an identical dissection was performed on the right paw except that the sciatic nerve was not ligated (Control). Nociceptive sensitivity was then measured was quantified by measuring the hind paw withdrawal response to von Frey filament stimulation as mentioned above. Animals underwent surgery on day 0; 11 days after surgery BD-1063 was injected subcutaneously in one group and the responses to mechanical stimuli were determined by means of the von Frey model in this and the none-treated group (before surgery) a reference value was measured in order to determine a baseline value.

[2] = tested on: capsaicin-induced allodynia; test: Von Frey model, capsaicin-induced mechanical allodynia; format: in vivo, mice
Text: The von Frey model is a model for allodynia, stimulated mechanically (mechanical allodynia).
Interest of the model: • The injection of capsaicin to experimental animals produces acute pain followed by allodynia • The mechanisms involved in capsaicin-induced acute pain and allodynia are relatively well known (mainly activation of peripheral nociceptors and sensitization of spinal cord neurons, respectively)
After habituation mice were according to FIG. 1 first treated with the test-compound (or not in controls). Then capsaicin (1% DMSO) is injected into their paw resulting in developing pain in the effected paw. The effected paw is then treated with a mechanical stimulus and the latency time before the paw is withdrawn is measured.
2 well known antisense Oligodesoxynucleotides (ODN) against the sigma 1 receptor (King et al. (1997) Eur J Pharmacol 331:R5-R6 and Ueda et al. (2001) J. Pharmacol. Exp. Ther. 298, 703-710) were synthesized and according to the protocol shown in FIG. 3a) given on 4 consecutive days i.c.v. followed by a wash-out period and von-Frey tests according to example 1.

sigma receptor = details: Sigma 1 and Sigma 2 for pentazocine; cited from earlier work

In the case of `CN1CCN(CCc2ccc(Cl)c(Cl)c2)CC1` [BD-1063, 1-(3,4-dichlorophenethyl)-4-methylpiperazine], the “effect on mechanical allodynia, von Frey model” value [1] is reported as “antagonizes mechanical allodynia in mice exposed to the (ipsilateral) sciatic nerve injury significantly”.

In the case of `CCCN(CCC)CCc1ccc(OC)c(OCCc2ccccc2)c1` [NE-100], the “analgesia in capsaicin-induced allodynia, dose dependency” value ([2]; FIG. 2a, mice, von Frey filaments) is given as “dose dependency of the treatment with NE-100 showing analgesia”, the “efficacy depending on the force of the von-Frey filaments (0.5 g allodynia vs 4 g general pain)” value ([2]; FIG. 2b, NE-100 64 mg/kg) is given as “effective specifically in allodynia or mechanical allodynia and not general pain” and the “affinity to the sigma receptor” value (sigma receptor) is given as “high affinity”.

For `O=C(OCCN1CCOCC1)C1(c2ccccc2)CCCCC1` [PRE-084], the “effect of sigma receptor agonist on the effect of NE-100” value ([2]; FIG. 2c, given with NE-100) was “counteracting the effect of NE-100”.

For `CC(C)=CCN1CCC2(C)c3cc(O)ccc3CC1C2C` (stereo not drawn) [pentazocine], the “affinity to the sigma receptor” value (sigma receptor) is listed as “very high affinity”.
